Laboratory results reported in patent publication US9926302B2, “Heteroaryl substituted heterocyclyl sulfones” (priority 2014, dated 2018).

Target: T1, Human CaV2.2 channels (Homo sapiens, UniProt Q00975)
T1 construct: expressed in transfected cells
Experiment: Fluorescence assay for CaV2.2 channels using potassium depolarization to induce channel opening (FLIPR, Fluo 4)
Type: cell-based
Conditions: alternative assay buffer 30 mM KCl (inactivated channel state), HEK293 cells stably expressing human CaV2.2; for inhibition at 3 µM: HEK293, 3 μM test compound, read-out: Activity Category: %-Inhib (CaV2.2) @3 μM @30 mM KCl; for Activity Category: %-Inhib (CaV2.2) @3 μM @30 mM KCl: 3 μM test compound
Procedure, shortened: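 HEK293 cells stably co-expressing CaV2.2 with alpha2-delta and beta subunits plus Kir2.3, loaded with 2 μM Fluo 4 and pre-incubated 15 min at 25° C with compound in 1 mM or 30 mM KCl buffer (pH 7.4; latter promotes inactivated state). Depolarized by KCl addition; peak fluorescence amplitude normalized to baseline gives inhibition.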

T1 sequence (P54289 947-1103): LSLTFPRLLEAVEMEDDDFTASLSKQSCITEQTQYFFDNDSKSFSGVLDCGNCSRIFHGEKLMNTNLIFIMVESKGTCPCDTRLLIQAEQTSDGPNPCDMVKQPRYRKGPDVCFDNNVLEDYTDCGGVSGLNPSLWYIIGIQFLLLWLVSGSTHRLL
T1 sequence (P54289 25-946): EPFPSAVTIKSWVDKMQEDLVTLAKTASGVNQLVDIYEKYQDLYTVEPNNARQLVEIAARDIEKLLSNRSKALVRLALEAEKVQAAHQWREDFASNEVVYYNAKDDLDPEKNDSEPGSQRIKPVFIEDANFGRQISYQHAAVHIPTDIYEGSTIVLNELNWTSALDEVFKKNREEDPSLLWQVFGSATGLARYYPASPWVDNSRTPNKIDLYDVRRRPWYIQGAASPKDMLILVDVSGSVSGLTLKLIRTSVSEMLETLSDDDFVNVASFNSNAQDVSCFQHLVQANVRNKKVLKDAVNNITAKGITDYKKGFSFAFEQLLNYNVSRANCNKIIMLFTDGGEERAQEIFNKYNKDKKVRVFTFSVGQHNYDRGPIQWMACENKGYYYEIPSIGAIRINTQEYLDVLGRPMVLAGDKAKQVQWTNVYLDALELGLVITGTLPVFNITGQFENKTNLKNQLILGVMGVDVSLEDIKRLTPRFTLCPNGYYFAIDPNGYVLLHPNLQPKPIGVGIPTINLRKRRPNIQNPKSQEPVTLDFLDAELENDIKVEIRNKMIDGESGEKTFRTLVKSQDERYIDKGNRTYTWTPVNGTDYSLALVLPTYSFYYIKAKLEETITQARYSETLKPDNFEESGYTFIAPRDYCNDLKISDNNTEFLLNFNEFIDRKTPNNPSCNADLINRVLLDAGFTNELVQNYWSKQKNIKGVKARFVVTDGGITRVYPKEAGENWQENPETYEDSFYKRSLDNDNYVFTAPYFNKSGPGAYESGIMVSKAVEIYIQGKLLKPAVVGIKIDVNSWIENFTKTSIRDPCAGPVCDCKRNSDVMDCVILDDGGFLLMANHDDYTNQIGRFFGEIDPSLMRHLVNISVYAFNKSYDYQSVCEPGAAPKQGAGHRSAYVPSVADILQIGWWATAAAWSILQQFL
T1 sequence (P54284 whole entry, further chain): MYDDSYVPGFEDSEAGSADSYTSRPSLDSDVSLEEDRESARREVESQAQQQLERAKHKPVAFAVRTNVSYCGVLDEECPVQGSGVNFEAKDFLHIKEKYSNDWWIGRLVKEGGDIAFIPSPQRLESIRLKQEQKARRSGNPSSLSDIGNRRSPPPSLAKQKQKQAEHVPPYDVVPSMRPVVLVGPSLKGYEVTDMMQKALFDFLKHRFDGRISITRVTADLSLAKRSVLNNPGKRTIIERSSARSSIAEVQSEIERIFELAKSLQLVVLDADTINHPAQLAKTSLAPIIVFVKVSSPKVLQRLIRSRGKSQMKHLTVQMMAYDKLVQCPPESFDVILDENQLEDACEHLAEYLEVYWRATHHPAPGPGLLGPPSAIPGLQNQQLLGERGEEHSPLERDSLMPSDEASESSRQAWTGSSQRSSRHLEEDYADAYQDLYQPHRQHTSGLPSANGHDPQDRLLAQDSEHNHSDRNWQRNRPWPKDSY
T1 sequence (Q00975 whole entry): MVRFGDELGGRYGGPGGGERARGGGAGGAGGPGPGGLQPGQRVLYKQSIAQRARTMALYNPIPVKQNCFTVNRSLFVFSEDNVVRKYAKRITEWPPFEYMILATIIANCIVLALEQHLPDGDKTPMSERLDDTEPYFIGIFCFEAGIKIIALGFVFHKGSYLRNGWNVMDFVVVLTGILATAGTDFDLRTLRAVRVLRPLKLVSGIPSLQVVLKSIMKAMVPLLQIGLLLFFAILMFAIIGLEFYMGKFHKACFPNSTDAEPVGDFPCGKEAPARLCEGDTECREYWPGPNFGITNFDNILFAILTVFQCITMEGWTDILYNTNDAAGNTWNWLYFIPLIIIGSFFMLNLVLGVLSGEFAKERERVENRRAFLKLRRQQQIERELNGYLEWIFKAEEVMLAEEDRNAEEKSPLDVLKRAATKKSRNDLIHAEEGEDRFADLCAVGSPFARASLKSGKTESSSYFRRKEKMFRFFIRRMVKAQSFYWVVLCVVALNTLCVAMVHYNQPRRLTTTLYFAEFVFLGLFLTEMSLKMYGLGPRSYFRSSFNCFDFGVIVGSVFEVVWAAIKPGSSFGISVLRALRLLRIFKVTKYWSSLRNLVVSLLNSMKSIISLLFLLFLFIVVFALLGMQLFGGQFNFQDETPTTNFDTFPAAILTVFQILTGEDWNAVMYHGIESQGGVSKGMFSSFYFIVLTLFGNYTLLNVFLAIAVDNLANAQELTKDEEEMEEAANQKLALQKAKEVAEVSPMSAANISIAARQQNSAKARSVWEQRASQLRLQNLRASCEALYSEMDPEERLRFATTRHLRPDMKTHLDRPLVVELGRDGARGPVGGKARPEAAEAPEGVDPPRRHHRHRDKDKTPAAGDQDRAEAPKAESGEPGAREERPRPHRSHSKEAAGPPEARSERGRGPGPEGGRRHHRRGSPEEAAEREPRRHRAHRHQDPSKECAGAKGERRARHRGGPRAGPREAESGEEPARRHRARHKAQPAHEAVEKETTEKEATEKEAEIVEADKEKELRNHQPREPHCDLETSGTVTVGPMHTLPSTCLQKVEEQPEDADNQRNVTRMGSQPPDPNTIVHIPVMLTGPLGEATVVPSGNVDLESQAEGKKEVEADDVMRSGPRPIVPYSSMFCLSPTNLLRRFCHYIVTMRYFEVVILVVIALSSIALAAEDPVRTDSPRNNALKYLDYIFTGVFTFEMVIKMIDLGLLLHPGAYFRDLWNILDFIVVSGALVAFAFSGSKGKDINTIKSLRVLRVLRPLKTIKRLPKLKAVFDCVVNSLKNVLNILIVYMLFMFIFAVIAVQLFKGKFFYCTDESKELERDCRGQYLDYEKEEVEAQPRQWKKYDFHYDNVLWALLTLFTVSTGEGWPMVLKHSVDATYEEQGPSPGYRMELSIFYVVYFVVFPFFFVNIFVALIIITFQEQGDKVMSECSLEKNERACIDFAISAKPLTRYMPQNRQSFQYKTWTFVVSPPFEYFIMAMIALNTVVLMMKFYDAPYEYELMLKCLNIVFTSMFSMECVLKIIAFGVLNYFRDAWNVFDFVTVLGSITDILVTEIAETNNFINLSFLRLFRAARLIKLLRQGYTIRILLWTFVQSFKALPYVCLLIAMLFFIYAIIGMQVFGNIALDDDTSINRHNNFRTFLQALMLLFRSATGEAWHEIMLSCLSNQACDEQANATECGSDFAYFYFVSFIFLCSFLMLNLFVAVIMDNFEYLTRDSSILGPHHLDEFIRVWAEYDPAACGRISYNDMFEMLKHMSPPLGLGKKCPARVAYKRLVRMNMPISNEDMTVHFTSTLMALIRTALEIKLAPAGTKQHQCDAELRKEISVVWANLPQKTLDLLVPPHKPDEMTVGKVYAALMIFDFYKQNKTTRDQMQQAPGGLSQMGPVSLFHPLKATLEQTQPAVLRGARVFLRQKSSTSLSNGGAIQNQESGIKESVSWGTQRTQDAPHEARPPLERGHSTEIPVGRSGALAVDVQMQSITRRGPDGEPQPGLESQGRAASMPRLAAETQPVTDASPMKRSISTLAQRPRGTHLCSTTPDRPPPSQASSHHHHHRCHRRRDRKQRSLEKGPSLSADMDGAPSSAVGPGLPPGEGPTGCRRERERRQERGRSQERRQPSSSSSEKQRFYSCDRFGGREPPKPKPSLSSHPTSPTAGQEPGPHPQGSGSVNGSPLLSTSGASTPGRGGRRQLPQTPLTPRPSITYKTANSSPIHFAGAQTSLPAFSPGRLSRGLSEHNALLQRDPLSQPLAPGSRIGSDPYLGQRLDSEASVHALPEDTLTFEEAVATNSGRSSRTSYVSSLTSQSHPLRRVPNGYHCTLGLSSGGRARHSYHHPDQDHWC

| SMILES | inhibition at 3 µM | Activity Category: %-Inhib (CaV2.2) @3 μM @30 mM KCl |
| --- | --- | --- |
| CC1(S(=O)(=O)c2cccc(C(F)(F)F)c2)CCOC(c2ncc(S(C)(=O)=O)cc2C2CC2)C1 (stereo not drawn) [SC-270, 3-cyclopropyl-2-(4-methyl-4-(3-(trifluoromethyl)phenylsulfonyl)tetrahydro-2H-pyran-2-yl)-5-(methylsulfonyl)pyridine] | 75 to 95% | – |
| CC(C)Oc1ccc(C2CC(C)(S(=O)(=O)c3cccc(C(F)(F)F)c3)CCO2)cn1 (stereo not drawn) [SC-300, 2-Isopropoxy-5-[4-methyl-4-[[3-(trifluoromethyl)phenyl]sulfonyl]-tetrahydro-pyran-2-yl]-pyridine] | > 95% | – |
| CC1(S(=O)(=O)c2cccc(C(F)(F)F)c2)CCOC(c2cnc(C(F)(F)F)nc2)C1 (stereo not drawn) [SC-304, 5-[4-Methyl-4-[[3-(trifluoromethyl)phenyl]sulfonyl]-tetrahydro-pyran-2-yl]-2-(trifluoromethyl)-pyrimidine] | 75 to 95% | – |
| CC1(S(=O)(=O)c2cccc(C(F)(F)F)c2)CCOC(c2cnc(C(F)(F)F)nc2)C1 (stereo not drawn) [SC-305, 5-[4-Methyl-4-[[3-(trifluoromethyl)phenyl]sulfonyl]-tetrahydro-pyran-2-yl]-2-(trifluoromethyl)-pyrimidine] | – | A (%-Inhibition >95%) |
| CC1(S(=O)(=O)c2cccc(C(F)(F)F)c2)CCOC(c2ccc(C(F)(F)F)cn2)C1 (stereo not drawn) [SC-309, 2-[4-Methyl-4-[[3-(trifluoromethyl)phenyl]sulfonyl]-tetrahydro-pyran-2-yl]-5-(trifluoromethyl)-pyridine] | > 95% | – |
| CCC1(S(=O)(=O)c2cccc(C(F)(F)F)c2)CCOC(c2cccnc2C)C1 (stereo not drawn) [SC-312, 3-[4-Ethyl-4-[[3-(trifluoromethyl)phenyl]sulfonyl]-tetrahydro-pyran-2-yl]-2-methyl-pyridine] | 40 to 75% | – |
| CC1(S(=O)(=O)c2cccc(C(F)(F)F)c2)CCOC(c2ccc(C(F)(F)F)nc2)C1 (stereo not drawn) [SC-315, 5-[4-Methyl-4-[[3-(trifluoromethyl)phenyl]sulfonyl]-tetrahydro-pyran-2-yl]-2-(trifluoromethyl)-pyridine] | > 95% | – |
| CCC1(S(=O)(=O)c2cccc(C(F)(F)F)c2)CCOC(c2ccc(C)nc2C)C1 (stereo not drawn) [SC-317, 3-[4-Ethyl-4-[[3-(trifluoromethyl)phenyl]sulfonyl]-tetrahydro-pyran-2-yl]-2,6-dimethyl-pyridine] | – | C (%-Inhibition >40% up to ≤75%) |
| CCC1(S(=O)(=O)c2cccc(C(F)(F)F)c2)CCOC(c2ccc(C)nc2C)C1 (stereo not drawn) [SC-318, 3-[4-Ethyl-4-[[3-(trifluoromethyl)phenyl]sulfonyl]-tetrahydro-pyran-2-yl]-2,6-dimethyl-pyridine] | – | B (%-Inhibition >75% up to ≤95%) |
| CCC1(S(=O)(=O)c2cccc(C(F)(F)F)c2)CCOC(c2cccc(C)n2)C1 (stereo not drawn) [SC-324, 2-[4-Ethyl-4-[[3-(trifluoromethyl)phenyl]sulfonyl]-tetrahydro-pyran-2-yl]-6-methyl-pyridine] | 75 to 95% | – |
| CC1(S(=O)(=O)c2cccc(C(F)(F)F)c2)CCOC(c2cncc(C3CC3)c2)C1 (stereo not drawn) [SC-325, 3-Cyclopropyl-5-[4-methyl-4-[[3-(trifluoromethyl)phenyl]sulfonyl]-tetrahydro-pyran-2-yl]-pyridine] | > 95% | – |
| CC1(S(=O)(=O)c2cccc(C(F)(F)F)c2)CCOC(c2cnc(C3CC3)cn2)C1 (stereo not drawn) [SC-327, 2-Cyclopropyl-5-[4-methyl-4-[[3-(trifluoromethyl)phenyl]sulfonyl]-tetrahydro-pyran-2-yl]-pyrazine] | 75 to 95% | – |
| CC1(S(=O)(=O)c2cccc(C(F)(F)F)c2)CCOC(c2cnc(C3CC3)cn2)C1 (stereo not drawn) [SC-329, 2-Cyclopropyl-5-[4-methyl-4-[[3-(trifluoromethyl)phenyl]sulfonyl]-tetrahydro-pyran-2-yl]-pyrazine] | – | A (%-Inhibition >95%) |
| CN(C)c1ccc(C2CC(C)(S(=O)(=O)c3cccc(C(F)(F)F)c3)CCO2)cn1 (stereo not drawn) [SC-330, Dimethyl-[5-[4-methyl-4-[[3-(trifluoromethyl)phenyl]sulfonyl]-tetrahydro-pyran-2-yl]-pyridin-2-yl]-amine] | 75 to 95% | – |
| CN(C)c1ccc(C2CC(C)(S(=O)(=O)c3cccc(C(F)(F)F)c3)CCO2)cn1 (stereo not drawn) [SC-331, Dimethyl-[5-[4-methyl-4-[[3-(trifluoromethyl)phenyl]sulfonyl]-tetrahydro-pyran-2-yl]-pyridin-2-yl]-amine] | – | A (%-Inhibition >95%) |
| CCC1(S(=O)(=O)c2cccc(C(F)(F)F)c2)CCOC(c2cnc(C3CC3)cn2)C1 (stereo not drawn) [SC-332, 2-Cyclopropyl-5-[4-ethyl-4-[[3-(trifluoromethyl)phenyl]sulfonyl]-tetrahydro-pyran-2-yl]-pyrazine] | 75 to 95% | – |
| Cc1ccc(C2CC(S(=O)(=O)c3cccc(C(F)(F)F)c3)CCO2)c(C)n1 (stereo not drawn) [SC-335, 2,6-Dimethyl-3-[4-[[3-(trifluoromethyl)phenyl]sulfonyl]-tetrahydro-pyran-2-yl]-pyridine] | 40 to 75% | – |

| SMILES | inhibition at 3 µM | Activity Category: %-Inhib (CaV2.2) @3 μM @30 mM KCl |
| --- | --- | --- |
| CC1(S(=O)(=O)c2cccc(C(F)(F)F)c2)CCOC(c2ccc(S(C)(=O)=O)nc2)C1 (stereo not drawn) [SC-336, 2-Methylsulfonyl-5-[4-methyl-4-[[3-(trifluoromethyl)phenyl]sulfonyl]-tetrahydro-pyran-2-yl]-pyridine] | – | C (%-Inhibition >40% up to ≤75%) |
| CC1(S(=O)(=O)c2cccc(C(F)(F)F)c2)CCOC(c2ccc(S(C)(=O)=O)nc2)C1 (stereo not drawn) [SC-338, 2-Methylsulfonyl-5-[4-methyl-4-[[3-(trifluoromethyl)phenyl]sulfonyl]-tetrahydro-pyran-2-yl]-pyridine] | – | B (%-Inhibition >75% up to ≤95%) |
| CC(C)Oc1ccc(C2CC(S(=O)(=O)c3cccc(C(F)(F)F)c3)CCO2)cn1 (stereo not drawn) [SC-339, 2-Isopropoxy-5-[4-[[3-(trifluoromethyl)phenyl]sulfonyl]-tetrahydro-pyran-2-yl]-pyridine] | > 95% | – |
| O=S(=O)(c1cccc(C(F)(F)F)c1)C1CCOC(c2ccc(C(F)(F)F)nc2)C1 (stereo not drawn) [SC-342, 2-(Trifluoromethyl)-5-[4-[[3-(trifluoromethyl)phenyl]sulfonyl]-tetrahydro-pyran-2-yl]-pyridine] | 75 to 95% | – |
| Cn1nc(C(F)(F)F)cc1C1CC(C)(S(=O)(=O)c2cccc(C(F)(F)F)c2)CCO1 (stereo not drawn) [SC-343, 1-Methyl-5-[4-methyl-4-[[3-(trifluoromethyl)phenyl]sulfonyl]-tetrahydro-pyran-2-yl]-3-(trifluoromethyl)-1H-pyrazole] | 75 to 95% | – |
| Cn1nc(C(F)(F)F)cc1C1CC(C)(S(=O)(=O)c2cccc(C(F)(F)F)c2)CCO1 (stereo not drawn) [SC-345, 1-Methyl-5-[4-methyl-4-[[3-(trifluoromethyl)phenyl]sulfonyl]-tetrahydro-pyran-2-yl]-3-(trifluoromethyl)-1H-pyrazole] | – | A (%-Inhibition >95%) |
| CC1(S(=O)(=O)c2cccc(C(F)(F)F)c2)CCOC(c2ccc(C3CC3)nc2)C1 (stereo not drawn) [SC-346, 2-Cyclopropyl-5-[4-methyl-4-[[3-(trifluoromethyl)phenyl]sulfonyl]-tetrahydro-pyran-2-yl]-pyridine] | 75 to 95% | – |
| CC1(S(=O)(=O)c2cccc(C(F)(F)F)c2)CCOC(c2ccc(C3CC3)nc2)C1 (stereo not drawn) [SC-348, 2-Cyclopropyl-5-[4-methyl-4-[[3-(trifluoromethyl)phenyl]sulfonyl]-tetrahydro-pyran-2-yl]-pyridine] | – | A (%-Inhibition >95%) |
| O=S(=O)(c1cccc(C(F)(F)F)c1)C1CCOC(c2cccc(C(F)(F)F)n2)C1 (stereo not drawn) [SC-350, 2-(Trifluoromethyl)-6-[4-[[3-(trifluoromethyl)phenyl]sulfonyl]-tetrahydro-pyran-2-yl]-pyridine] | > 95% | – |
| COc1ccc(C2CC(C)(S(=O)(=O)c3cccc(C(F)(F)F)c3)CCO2)cn1 (stereo not drawn) [SC-353, 2-Methoxy-5-[4-methyl-4-[[3-(trifluoromethyl)phenyl]sulfonyl]-tetrahydro-pyran-2-yl]-pyridine] | 75 to 95% | – |
| COc1ccc(C2CC(C)(S(=O)(=O)c3cccc(C(F)(F)F)c3)CCO2)cn1 (stereo not drawn) [SC-354, 2-Methoxy-5-[4-methyl-4-[[3-(trifluoromethyl)phenyl]sulfonyl]-tetrahydro-pyran-2-yl]-pyridine] | – | A (%-Inhibition >95%) |
| CC1(S(=O)(=O)c2cccc(C(F)(F)F)c2)CCOC(c2ncc(C(F)(F)F)cc2S(C)(=O)=O)C1 (stereo not drawn) [SC-355, 3-Methylsulfonyl-2-[4-methyl-4-[[3-(trifluoromethyl)phenyl]sulfonyl]-tetrahydro-pyran-2-yl]-5-(trifluoromethyl)-pyridine] | 75 to 95% | – |
| CC1(S(=O)(=O)c2cccc(C(F)(F)F)c2)CCOC(c2ncc(C(F)(F)F)cc2S(C)(=O)=O)C1 (stereo not drawn) [SC-356, 3-Methylsulfonyl-2-[4-methyl-4-[[3-(trifluoromethyl)phenyl]sulfonyl]-tetrahydro-pyran-2-yl]-5-(trifluoromethyl)-pyridine] | – | A (%-Inhibition >95%) |
| CC1(S(=O)(=O)c2cccc(C(F)(F)F)c2)CCOC(c2ccc(N3CCCC3)nc2)C1 (stereo not drawn) [SC-400, 5-[4-Methyl-4-[[3-(trifluoromethyl)phenyl]sulfonyl]-tetrahydro-pyran-2-yl]-2-pyrrolidin-1-yl-pyridine] | > 95% | – |
| CC1(S(=O)(=O)c2cccc(C(F)(F)F)c2)CCOC(c2ccc(-n3cncn3)nc2)C1 (stereo not drawn) [SC-402, 5-[4-Methyl-4-[[3-(trifluoromethyl)phenyl]sulfonyl]-tetrahydro-pyran-2-yl]-2-(1H-[1,2,4]triazol-1-yl)-pyridine] | 75 to 95% | – |
| COCCOc1ccc(C2CC(C)(S(=O)(=O)c3cccc(C(F)(F)F)c3)CCO2)cn1 (stereo not drawn) [SC-404, 2-(2-Methoxy-ethoxy)-5-[4-methyl-4-[[3-(trifluoromethyl)phenyl]sulfonyl]-tetrahydro-pyran-2-yl]-pyridine] | 75 to 95% | – |
